Some test systems named below: RXF 393; TK-10; A498; OVCAR-8; SN12C; HT-29; EKVX; A549; 786-0; OVCAR-3; NCI/ADR-RES; SF-268; SR; HCT-116; LOX IMVI; MDA-N; CCRF-CEM; SNB-19; SK-OV-3; BT-549.
Common to all, as to test: NCI-60 cell line screen, 48 h

Each structure is given as a SMILES string.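 Protocol summary: plate cells (96-well), add compound at 5 concentrations, incubate 48 h, interpolate endpoints linearly. GI50 = concentration required for 50% inhibition of growth.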 Calls of active or inactive are those of the source. Rule as the data show it: active = GI50 up to about 1.1 µM and inactive = higher. A value given as a limit tells only on which side of the number the result lay.

For the compound `CCCCCC(/C=C/C1CCC(=O)C1CC#C[Si](C)(C)C)OCc1ccccc1` (stereo not given), the GI50 is 13.9 µM (inactive) in the experiment with RXF 393; 22.1 µM (inactive) in the experiment on TK-10; 36.3 µM (inactive) with A498; 14.8 µM (inactive) with OVCAR-8; 19.8 µM (inactive) in the experiment on SN12C; 16.3 µM (inactive) in the experiment on HT-29. The GI50 in the experiment on EKVX was 16.9 µM (inactive); with A549, 21.5 µM (inactive); in the experiment on 786-0, 14.6 µM (inactive); with OVCAR-3, 17.5 µM (inactive); in the experiment on NCI/ADR-RES, 14.5 µM (inactive); with SF-268, 14.3 µM (inactive). Also, the GI50 is > 35 µM (inactive) in the experiment with SR; 15.8 µM (inactive) in the experiment with HCT-116; 15.7 µM (inactive) with LOX IMVI; 21.1 µM (inactive) with MDA-N; 10.5 µM (inactive) with CCRF-CEM; 28.4 µM (inactive) with SNB-19. The figures for the GI50 in the experiment on SK-OV-3 and with BT-549 were 41.2 µM (inactive) and 17.3 µM (inactive), respectively.

Consider `COc1cc2c(cc1OC)C(=O)N(c1ccc(O)cc1)C2`, for which the GI50 in the experiment with RXF 393, in the experiment on TK-10, in the experiment with A498, in the experiment with OVCAR-8, in the experiment on SN12C and in the experiment with HT-29 was > 100 µM (inactive) in each case. In addition, the GI50 in the experiment with EKVX, in the experiment with A549, with 786-0, in the experiment with OVCAR-3, in the experiment on NCI/ADR-RES and in the experiment with SF-268 was > 100 µM (inactive) in each case. For the same compound, the GI50 in the experiment on SR, in the experiment on HCT-116, with LOX IMVI, in the experiment with MDA-N, with CCRF-CEM and with SNB-19 was > 100 µM (inactive) in each case. Besides, the GI50 with SK-OV-3 and with BT-549 was > 100 µM (inactive) throughout.

For `O=C(CC(=O)c1ccncc1)c1ccccc1`, the GI50 was 81.3 µM (inactive) in the experiment with RXF 393; > 94.8 µM (inactive) in the experiment on TK-10; > 100 µM (inactive) in the experiment on A498; 59.6 µM (inactive) in the experiment on OVCAR-8; 42.2 µM (inactive) in the experiment on SN12C; > 77.8 µM (inactive) in the experiment on HT-29. Besides, the GI50 in the experiment on EKVX is > 64.3 µM (inactive); with A549, > 100 µM (inactive); in the experiment with 786-0 it was 66.4 µM (inactive); in the experiment on OVCAR-3, > 85.3 µM (inactive); with NCI/ADR-RES, 24.3 µM (inactive); with SF-268, 63.5 µM (inactive). The GI50 in the experiment with SR is 22.1 µM (inactive); with HCT-116 it was 75.2 µM (inactive); in the experiment on LOX IMVI, 31.8 µM (inactive); in the experiment on MDA-N, > 71.1 µM (inactive); with CCRF-CEM, 11.9 µM (inactive); with SNB-19 it was > 100 µM (inactive). The GI50 with SK-OV-3 and in the experiment on BT-549 was > 100 µM (inactive) in each case.

In the case of `CCC(/C=C/C1OC(=O)C=CC1C)=C\C(C)C/C=C/C(C)=C/C(C)C(=O)C(C)C(O)C(C)C/C(C)=C/C(=O)O` (stereo not given), the GI50 in the experiment on RXF 393 is 1.13 µM (inactive); in the experiment on TK-10 it was 9.4e-05 µM (active); with A498 it was 2.08 µM (inactive); in the experiment on OVCAR-8, 3.14 µM (inactive); with SN12C it was 2.72 µM (inactive); with HT-29, 3.01e-06 µM (active). The GI50 is 1.92e-05 µM (active) in the experiment with EKVX; 0.946 µM (active) in the experiment on A549; < 1e-06 µM (active) in the experiment on 786-0; 0.649 µM (active) in the experiment on OVCAR-3; 0.000115 µM (active) in the experiment on NCI/ADR-RES; 4.07e-06 µM (active) in the experiment on SF-268. Further, the GI50 with SR was < 1e-06 µM (active); in the experiment on HCT-116, 1.17 µM (inactive); in the experiment on LOX IMVI, < 1e-06 µM (active); in the experiment with MDA-N, 2.13e-06 µM (active); in the experiment on CCRF-CEM it was 0.895 µM (active); in the experiment on SNB-19, 3.09 µM (inactive). Also, the GI50 with SK-OV-3 was 3.11 µM (inactive); in the experiment on BT-549, 2.22e-06 µM (active).

For the compound `NC(CSS(=O)(=O)c1ccccc1)C(=O)O` (stereo not given), the GI50 in the experiment with RXF 393, with TK-10, in the experiment on A498, with OVCAR-8, in the experiment with SN12C and in the experiment on HT-29 was > 10 µM (inactive) in each case. In addition, the GI50 in the experiment on EKVX, with A549, in the experiment with 786-0, with OVCAR-3, in the experiment with NCI/ADR-RES and with SF-268 was > 10 µM (inactive) each time. The GI50 in the experiment with SR, in the experiment with HCT-116, in the experiment on LOX IMVI, with MDA-N, in the experiment on CCRF-CEM and in the experiment with SNB-19 was > 10 µM (inactive) throughout. Moreover, the GI50 in the experiment with SK-OV-3 and with BT-549 was > 10 µM (inactive) each time.

As to `CCOC(=O)/C1=C(\C)N(Cc2ccccc2)C(=O)c2ccccc2C(=O)c2c(O)ccc(O)c21`, the GI50 in the experiment with RXF 393 is 17.5 µM (inactive); in the experiment with TK-10, > 100 µM (inactive); in the experiment with A498, > 100 µM (inactive); with OVCAR-8, > 100 µM (inactive); in the experiment on SN12C, > 100 µM (inactive); in the experiment with HT-29, > 100 µM (inactive). In addition, the GI50 was 80.7 µM (inactive) in the experiment on EKVX; > 100 µM (inactive) with A549; > 100 µM (inactive) in the experiment with 786-0; > 100 µM (inactive) in the experiment on OVCAR-3; > 100 µM (inactive) with NCI/ADR-RES; > 100 µM (inactive) in the experiment on SF-268. Moreover, the GI50 in the experiment with SR, with HCT-116, in the experiment on LOX IMVI, with MDA-N, in the experiment on CCRF-CEM and with SNB-19 was > 100 µM (inactive) throughout. In addition, the GI50 in the experiment with SK-OV-3 was > 100 µM (inactive); in the experiment on BT-549, < 0.01 µM (active).

Regarding `COc1cccc(Nc2nc(NNC(=O)Cc3ccccc3)nc(NNC(=O)c3ccncc3)n2)c1`, the GI50 with RXF 393 is > 100 µM (inactive); in the experiment on TK-10 it was > 10 µM (inactive); with A498, > 100 µM (inactive); in the experiment with OVCAR-8, > 10 µM (inactive); with SN12C, > 10 µM (inactive); with HT-29, > 100 µM (inactive). Moreover, the GI50 was > 10 µM (inactive) in the experiment with EKVX; > 10 µM (inactive) in the experiment on A549; > 10 µM (inactive) in the experiment with 786-0; > 100 µM (inactive) in the experiment with OVCAR-3; > 10 µM (inactive) in the experiment with NCI/ADR-RES; > 10 µM (inactive) with SF-268. The GI50 in the experiment on SR is 6.62 µM (inactive); in the experiment with HCT-116, > 100 µM (inactive); with LOX IMVI, 13.4 µM (inactive); with MDA-N it was > 10 µM (inactive); with CCRF-CEM it was > 10 µM (inactive); in the experiment on SNB-19, > 100 µM (inactive). The GI50 in the experiment on SK-OV-3 and with BT-549 was > 10 µM (inactive) in each case.

Take `Cc1cc(S(=O)(=O)Nc2nnc3c(C(F)(F)F)cc(Cl)cn23)c(S)cc1Cl`: the GI50 in the experiment with RXF 393, in the experiment with TK-10, in the experiment on A498, in the experiment on OVCAR-8, in the experiment with SN12C and in the experiment on HT-29 was > 100 µM (inactive) throughout. Moreover, the GI50 is > 100 µM (inactive) with EKVX; > 100 µM (inactive) with A549; > 100 µM (inactive) in the experiment on 786-0; 89.5 µM (inactive) in the experiment with OVCAR-3; > 100 µM (inactive) in the experiment with NCI/ADR-RES; > 100 µM (inactive) with SF-268. Moreover, the GI50 was 81.7 µM (inactive) in the experiment on SR; 57.9 µM (inactive) in the experiment with HCT-116; > 100 µM (inactive) in the experiment on LOX IMVI; > 100 µM (inactive) in the experiment on MDA-N; > 100 µM (inactive) in the experiment with CCRF-CEM; 38.2 µM (inactive) in the experiment with SNB-19. Besides, the GI50 in the experiment on SK-OV-3 and in the experiment with BT-549 was > 100 µM (inactive) in each case.

On to `CCCCCCCCCCCCCCCCOC[C@@H](COC(c1ccccc1)(c1ccccc1)c1ccccc1)O[PH](=S)OC` (stereo not given in full), for which the GI50 was 7.53 µM (inactive) in the experiment with RXF 393; 11.5 µM (inactive) in the experiment on TK-10; 11.5 µM (inactive) in the experiment with A498; 12.1 µM (inactive) with OVCAR-8; 5.32 µM (inactive) with SN12C; 16.8 µM (inactive) with HT-29. The GI50 in the experiment on EKVX is 13.6 µM (inactive); in the experiment with A549, 5.61 µM (inactive); in the experiment with 786-0 it was 6.49 µM (inactive); in the experiment on OVCAR-3, 13.2 µM (inactive); with NCI/ADR-RES, 22.6 µM (inactive); with SF-268 it was 9.25 µM (inactive). Also, the GI50 in the experiment on SR is 2.33 µM (inactive); in the experiment on HCT-116, 3.86 µM (inactive); in the experiment on LOX IMVI it was 2.98 µM (inactive); in the experiment with MDA-N, 2.24 µM (inactive); with CCRF-CEM, 11.7 µM (inactive); in the experiment on SNB-19, 4.79 µM (inactive). The GI50 in the experiment on SK-OV-3 is 5.68 µM (inactive); in the experiment with BT-549, 3.35 µM (inactive).

As to `COc1ccc2c(c1)CCc1cc(C(N)=O)c3nnnn3c1-2`, the GI50 is 16.9 µM (inactive) in the experiment with RXF 393; 8.13 µM (inactive) in the experiment on TK-10; 18.2 µM (inactive) with A498; > 52.7 µM (inactive) with OVCAR-8; 99.8 µM (inactive) in the experiment on SN12C; > 100 µM (inactive) with HT-29. Moreover, the GI50 was < 0.0224 µM (active) with EKVX; > 100 µM (inactive) with A549; 33.6 µM (inactive) in the experiment with 786-0; > 54.3 µM (inactive) in the experiment with OVCAR-3; > 84.5 µM (inactive) with NCI/ADR-RES; 2.98 µM (inactive) in the experiment with SF-268. Moreover, the GI50 is > 100 µM (inactive) in the experiment with SR; 67.1 µM (inactive) with HCT-116; > 58.1 µM (inactive) in the experiment on LOX IMVI; > 100 µM (inactive) in the experiment with MDA-N; > 50.1 µM (inactive) in the experiment with CCRF-CEM; 64.7 µM (inactive) with SNB-19. Moreover, the GI50 in the experiment with SK-OV-3 is 54.3 µM (inactive); in the experiment on BT-549, 35.5 µM (inactive).
